Measurements: PMC11988454, “Discovery of synthetic small molecules targeting the central regulator of Salmonella pathogenicity” (Science Advances, 2025)

Legend:
[1] = test system: T3SS-1 (SipA-HiBiT injection into HeLa cells); assay: SipA-HiBiT injection assay (split NanoLuc HiBiT/LgBiT); format: cell-based, S. Typhimurium
Description: SipA injection assay was performed using the split-Nanoluc (HiBiT/LgBiT) system as described previously ([37], [38]). In brief, NanoLuc is split into two parts: LgBiT, comprising 10 of the 11 β strands of the luciferase, and HiBiT, a short peptide with high affinity to LgBiT, contributing the missing β strand to make a functional luciferase. S. Typhimurium strains expressing SipA-HiBiT were grown in LB supplemented with 0.3 M NaCl and either compound at different concentrations or 1% (v/v) DMSO. Cultures were incubated at 37°C with shaking at 180 rpm until an OD600 of 0.9 was reached. Bacteria were then pelleted and washed twice with Hanks’ balanced salt solution (HBSS). The bacterial suspension was diluted to obtain a multiplicity of infection (MOI) of 50 and then used to infect the LgBiT-expressing HeLa cell. Luminescence was measured using a Tecan Sparc Multimode reader.

[2] = test system: SPI-4 encoded T1SS (SiiE); assay: SiiE-HiBiT cell surface retention assay; format: cell-based, S. Typhimurium
Description: HiBiT was inserted chromosomally into SiiE at position K5411, using the suicide plasmid pMIB8021 (pSB890-siiE::K5411HiBiT). Bacteria were grown for 5 hours under SPI-4–inducing conditions (LB supplemented with 0.3 M NaCl). OD units of 0.5 were harvested at 10,000g for 2 min at 4°C. Cell pellets were washed twice with cold PBS and then resuspended to a final concentration of 0.5 OD units. Twenty-five microliters from the bacterial suspension was transferred into a 384-well plate. The Nano-Glo HiBiT Extracellular Buffer and corresponding substrate were prepared according to the manufacturer’s instructions. Twenty-five microliters of the Nano-Glo HiBiT Extracellular buffer-substrate mix was added to each sample and then incubated at r.t. for 10 min. Luminescence was measured with a Tecan Spark microplate reader.

[3] = test system: S. enterica clinical isolates (SipA secretion through T3SS-1); assay: Plasmid-based SipA secretion assay in clinical isolates; format: cell-based; conditions: C26 100 μM, 75 strains
Description: The plasmid pT10-SipA-NLuc was electroporated into electrocompetent cells of S. enterica clinical isolates. Bacteria at an initial OD600 of 0.02 were grown for 5 hours in 1 ml of LB supplemented with 0.3 M NaCl, kanamycin (50 μg/ml), and either compound at 100 μM or 1% (v/v) DMSO. Cultures were pelleted, and then 25 μl of the supernatant was transferred to a 384-well plate to measure luminescence as previously described.

## CN(CC(=O)NCc1ccc2c(c1)OCO2)Cc1ccc(Br)s1 [C26, N-(benzo[d][1,3]dioxol-5-ylmethyl)-2-{[(5-bromothiophen-2-yl)methyl](methyl)amino}acetamide]
[1]; C26 100 μM added to bacterial culture, 1 hour postinfection, MOI 50
  residual SipA injection: 11%
[1]; C26 100 μM only in infection inoculum, 1 hour postinfection, MOI 50
  SipA injection, % of the untreated bacteria: 48%
[1]; C26 added to bacterial culture
  SipA injection into HeLa cells over a 5-hour infection time: dose-dependent decrease
[2]
  SiiE-HiBiT retained on the bacterial cell surface: reduced in a dose-dependent manner
[3]
  sensitivity of clinical isolates (SipA secretion): all sensitive
